These results are taken from PMC11643554, “Synthesis, Cytotoxicity and Antiproliferative Effect of New Pyrrole Hydrazones” (Molecules, 2024).

A short description of series [1]: BALB 3T3 Neutral Red Uptake safety test (cytotoxicity/phototoxicity). As to conditions: mouse, BALB 3T3 clone A31 embryonic fibroblasts, BALB 3T3, NRU, 24 h incubation, n = 6. The series is classed as cell-based, mouse. How it is done:
(§1) The Neutral Red Uptake in vitro assay is a colorimetric method for assessing cell viability. This method is based on the ability of living cells to incorporate Neutral Red dye into lysosomes. Mouse embryonic fibroblasts were seeded at 1 × 10^4 cells/100 μL culture medium/well in 96-well cell culture microplates. The cells were incubated for 24 h to allow cell adhesion. The cells were then treated with a solution of the test substances in double-increasing concentrations (from 15 to 4000 μM). The phototoxicity test was performed in parallel on a second 96-well plate, which was irradiated with a solar simulator (LED lamp—Helios-iO (SERIC Ltd., Tokyo, Japan) for 10 min (irradiation dose 0.86 J). After 24 h of incubation, a culture medium containing Neutral Red was added. After 3 h of incubation, the wells were washed with PBS, and a Desorb solution (50% Ethanol, 1% Acetic acid, 49% dH2O) was added. The optical density (OD) was measured by a microplate reader at λ = 540 nm. The percentage of cytotoxicity was calculated according to the following formula:Cytotoxicity (%) = (1 − (OD540 (sample)/OD540 (negative control))) × 100 Phototoxicity is expressed by Photoirritation factor (PIF), PIF = CC50 − Irr/CC50 +Irr* * Irradiation

Series [2] has as its system mouse embryonic fibroblasts BALB 3T3 clone A31. The series is described as above. The series is classed as cell-based. The conditions noted are these: PIF = CC50 −Irr/CC50 +Irr; PIF < 2 not phototoxic, 2 < PIF < 5 probable phototoxicity, PIF > 5 phototoxic. Here is the method:
as §1

Series [3] deals with human keratinocytes HaCaT. The experiment in a line: Antiproliferative activity, MTT dye reduction assay, HaCaT. The series is classed as cell-based. As to conditions: non-tumor keratinocytes HaCaT, 72 h, n = 6, read-out: Mean IC50 ± SD, HaCaT. How it is done: (§2) The antiproliferative activity of the studied substances was determined by MTT dye reduction assay. The assay is based on the metabolism of MTT by reductases in the mitochondria to formazan, the concentration of which can be determined photometrically. The measured absorbance is an indicator of cell viability and metabolic activity. Cells were seeded in 96-well cell culture plates (1 × 10^3 cells/well). Followed by incubation at 37 °C, 5% CO2 for 24 h. Followed by incubation for 72 h of the cells with the studied substances in twice increasing concentrations. After washing with PBS, 100 µL/well of MTT solution (0.5 mg/mL) was added. After 3 h of incubation, the 96-well plates were washed with PBS, and 100 µL/well of lysing solution (DMSO/Ethanol = 1/1) was added. Optical density was measured at a wavelength of 540 nm. The antiproliferative activity expressed in % of the negative control was calculated according to the following formula:Antiproliferative activity (%) = (1 − (OD540 (sample)/OD540 (negative control))) × 100
(§3) The IC50 values (a concentration that inhibited 50% cell proliferation) were calculated using non-linear regression analysis (GraphPad Prizm8 Software). The statistical analysis included the application of one-way ANOVA followed by Bonferroni’s post hoc test. p < 0.05 was accepted as the lowest level of statistical significance. All results are presented as mean ± SD.

Another series concerns human melanoma SH-4. The experiment in a line: Antiproliferative activity, MTT dye reduction assay, SH-4. The series is classed as cell-based. The conditions noted are these: for IC50: melanoma SH-4, MTT, 72 h, n = 6, read-out: Mean IC50 ± SD, SH-4; for SI (Selective index): SI = IC50 (non-tumor cell line HaCaT)/IC50 (tumor cell line SH-4). How it is done:
as §2, §3

For series [4], the system named is SH-4 cells. The experiment in a line: Annexin V-FITC/PI flow cytometry assay (apoptosis). The series is classed as cell-based, human. How it is done:
Apoptosis was discriminated with the annexin V-FITC/PI test according to the manufacturer’s protocol (SIGMA-ALDRICH APOAF). […] After completion of each drug incubation, cell media that may contain cells in suspension was centrifuged at 350× g for 5 min. Subsequently, the cell monolayers were washed once with PBS, and cells were detached with trypsin and then collected together with a centrifuged pellet. The cells were washed twice with cold PBS and then resuspended in a Binding Buffer (0.1 M Hepes/NaOH (pH 7.4), 1.4 M NaCl, 25 mM CaCl2) at a concentration of 1 × 10^5 cells/mL. The cells were incubated with 5 µL of FITC Annexin V and 10 µL PI for 20 min at RT (25 °C) in the dark. The analysis was performed with BD FACS DIVA software version 7.0 (BD Biosciences, Franklin Lakes, NJ, USA). Data were analyzed as follows: lower left quadrant, viable cells (Annexin V−/PI−); lower right quadrant, early apoptotic cells (Annexin V+/PI−); upper right quadrant, late apoptotic cells (annexin V+/PI+); upper left quadrant, necrotic cells (annexin V−/PI+). Three independent experiments were performed, with two replicates per experiment.
For orientation: Flow cytometry measures light scatter and fluorescence of single cells or particles in a stream.

Series [5] has as its system SH-4 cells. Description: Cell cycle analysis, PI stain, flow cytometry. The conditions noted are these: SH-4, 48 h; for G2 phase, percentage of cells / S phase, percentage of cells / G0/G1 phase, percentage of cells: 1 6 µM, 1A 260 µM, 1B 260 µM, 1C 40 µM, 1D 8 µM, cisplatin 20 µM; for G2 phase, percentage of cells: control 12.1; for S phase, percentage of cells: control 21.6; for G0/G1 phase, percentage of cells: control 63.6. The series is classed as cell-based, human. Here is the method: After incubation, cells were washed twice with ice-cold PBS and fixed with ice-cold 70% ethanol at −20 °C overnight. The cells were treated with 20 µg/mL RNase A at 37 °C for 60 min, then washed with PBS and finally stained with 20 µg/mL PI in the dark for 30 min. The cellular DNA content for the cell cycle distribution analysis was performed with the system software (BD FACS DIVA software (BD Biosciences, Franklin Lakes, NJ, USA)), plotting at least 10,000 events per sample. Three independent experiments were performed, with two replicates per experiment.

Setting [6] is: irradiated with solar simulator 10 min (0.86 J), read-out: Mean CC50 ± SD, +Irr.
[7] abbreviates: without irradiation, read-out: Mean CC50 ± SD, −Irr.
Where [8] appears, read: SH-4, 48 h, 1 6 µM, 1A 260 µM, 1B 260 µM, 1C 40 µM, 1D 8 µM, cisplatin 20 µM.

Where two headings read alike, the source gives them in different places.

As to `CN(C)CCCN1c2ccccc2Sc2ccc(Cl)cc21` [Chlorpromazine, reference compound], the CC50 (as a rule, the concentration at which the toxic effect on the cells reaches its halfway point) at 24 h in series [1] (setting [6]) was 9.13 ± 0.72 µM; in series [1] (setting [7]), 65.8 ± 2.64 µM. Further, the “PIF (Photo Irritation Factor)” value in series [2] is 7.21.
Consider `N.N.[Cl][Pt][Cl]` [Cisplatin, reference compound], for which the IC50 (usually the concentration that gives 50% inhibition) in series [3] was 8.64 ± 0.42 µM. In addition, the IC50 in the series on human melanoma SH-4 came out at 22.8 ± 1.47 µM. In addition, in the series with SH-4 cells [4] (setting [8]), the “Early apoptosis (Annexin V+/PI−, Q3)” value was found to be 36.4%; the “Late apoptosis (Annexin V+/PI+, Q2)” value amounted to 2.59%; the “Necrosis (Annexin V−/PI+, Q1)” value turned out to be 0.34%. Also, in the series with SH-4 cells [5], the “G2 phase, percentage of cells” value worked out at 17.7%; the “S phase, percentage of cells” value turned out to be 61.3%; the “G0/G1 phase, percentage of cells” value worked out at 17.8%.
For the molecule `CCOC(=O)c1cc(-c2ccc(Cl)cc2)n(C(Cc2ccccc2)C(=O)NN)c1C` (stereo not drawn) [Compound 1, Ethyl-5-(4-chlorophenyl)-1-(1-hydrazinyl-1-oxo-3-phenylpropan-2-yl)-2-methyl-1H-pyrrole-3-carboxylate], the melting point (in general, the temperature, or range, at which the solid turns liquid) is 170 to 173 °C. Moreover, the CC50 at 24 h in series [1] (setting [6]) was 55.8 ± 4.49 µM. In series [1] (setting [7]), the CC50 at 24 h was determined as 52.3 ± 2.63 µM. The “PIF (Photo Irritation Factor)” value in series [2] is given as 0.94. The IC50 in series [3] (Homo sapiens) was found to be 9.64 ± 0.58 µM. Moreover, in the series with human melanoma SH-4 (Homo sapiens), the IC50 amounted to 6.86 ± 0.6 µM. Moreover, in the series on human melanoma SH-4, the “SI (Selective index)” value was 1.41. For the same molecule, the viability at 6 µM in the series with SH-4 cells [4] (Homo sapiens, SH-4, 48 h, read-out: Live (viable cells, Annexin V−/PI−, Q4)) came to 48.3%. Besides, in the series on SH-4 cells [4] (setting [8]), the “Early apoptosis (Annexin V+/PI−, Q3)” value was 42.7%; the “Late apoptosis (Annexin V+/PI+, Q2)” value is 8.74%; the “Necrosis (Annexin V−/PI+, Q1)” value came to 0.19%. Also, in the series on SH-4 cells [4] (SH-4, 48 h incubation, 6 µM), the “increase of total apoptotic cell populations compared to the control group” value is listed as 50%. For the same molecule, in the series with SH-4 cells [5], the “G2 phase, percentage of cells” value worked out at 13.4%; the “S phase, percentage of cells” value was 28.5%; the “G0/G1 phase, percentage of cells” value came out at 57%.
Molecule `CCOC(=O)c1cc(-c2ccc(Cl)cc2)n(C(Cc2ccccc2)C(=O)N/N=C/c2[nH]c(C(=O)OCC)c(C)c2C(=O)OCC)c1C` (stereo not drawn) [Compound 1A, Diethyl(E)-5-((2-(2-(5-(4-chlorophenyl)-3-(ethoxycarbonyl)-2-methyl-1H-pyrrol-1-yl)-3-phenylpropanoyl)hydrazineylidene)methyl)-3-methyl-1H-pyrrole-2,4-dicarboxylate] yielded a melting point of 109 to 112 °C. In series [1] (setting [6]), the half-maximal cytotoxic concentration (CC50) at 24 h is 2840 ± 124 µM. In addition, the CC50 at 24 h in series [1] (setting [7]) was 3140 ± 167 µM. In addition, in series [2], the “PIF (Photo Irritation Factor)” value came to 1.11. In series [3] (Homo sapiens), the IC50 worked out at 503 ± 31.1 µM. Also, the IC50 in the series with human melanoma SH-4 (Homo sapiens) is 270 ± 13.5 µM. Further, the “SI (Selective index)” value in the series on human melanoma SH-4 is on record as 1.87. Further, in the series with SH-4 cells [4] (SH-4, 48 h, 260 µM, versus Cisplatin 20 µM), the “apoptotic activity (in words)” value is given as “comparable apoptotic activity with positive control”. In addition, in the series on SH-4 cells [4] (setting [8]), the “Early apoptosis (Annexin V+/PI−, Q3)” value was found to be 36.5%; the “Late apoptosis (Annexin V+/PI+, Q2)” value amounted to 4.78%; the “Live (viable cells, Annexin V−/PI−, Q4)” value was found to be 58.2%; the “Necrosis (Annexin V−/PI+, Q1)” value came to 0.50%. Also, in the series with SH-4 cells [5] (at IC50 doses), the “effect on cell cycle distribution (in words)” value was “no significant changes in the cell cycle distribution”. Further, in the series with SH-4 cells [5], the “G2 phase, percentage of cells” value was 14.8%; the “S phase, percentage of cells” value is reported as 24.5%; the “G0/G1 phase, percentage of cells” value is given as 59.8%.
